From patent US20220184162A1, “PREPARATIONS CONTAINING BERRY EXTRACTS FOR USE IN TREATING CANCER” (Evonik Operations GmbH, priority 2019, published 2022)

Experiments:
activated PBMCs = test: Influence on proliferation of activated PBMCs (anti-CD3/anti-CD28, IL-2; CellTrace CFSE); type: cell-based, human; conditions: for Median Fluorescence Day 2 Average / Median Fluorescence Day 3 Average: CellTrace CFSE, activated PBMCs, 100 U/ml IL-2; for proliferation of activated PBMCs on day 3 (in words): versus water, maltodextrin or solvent control
Excerpt: (§1) Upon recognition of a foreign substance (foreign peptide presented on MHC) by the T cell receptor (TCR) and stimulation of the co-receptor CD28 the T cells start to proliferate. Thus, proliferation is a clear indication of T cell activation. Another classic activation marker for T cells is CD25, the high affinity receptor for the interleukin IL-2. This protein is not expressed by resting T cells and transcription is induced by TCR signaling. Thus, the presence of CD25 on the surface of T cells is a clear indicator of T cell activation. On the contrary, T cell exhaustion correlates with the signaling-induced expression of PD-1 on the surface of the T cells. To test the impact of substances on T cell activation, proliferation as well as CD25 and PD-1 upregulation, are used as readouts. Primary human Peripheral blood mononuclear cells (PBMCs) isolated from the blood of healthy donors (including primary T-cells) were used. PBMC cells represent a heterogenic population with 45-80% T cells, 5-20% B cells, 10-25% monocytes and 5-20% NK cells.
(§2) CellTrace™ stock solution was prepared according to the manual; addition of 15 μL DMSO to the CellTrace™ reagent and mixed well. Cell suspension was adjusted to 10^6 cells/mL in RPMI without FBS before addition of 1 μL CellTrace™ stock solution to each mL of cell suspension. After 20 minutes incubation (protected from light) of the cells at room temperature, five times the volume of culture medium was added and then again incubated for 5 min at room temperature. Afterwards the cells were centrifuged (300×g for 5 min) and the pellet resuspended in fresh culture medium. As last step the cells were incubated at 37° C. with 5% CO2 for 1-2 hours before the set-up of the experiment.
(§3) Following CFSE labelling and recovering at 37° C. with 5% CO2, cells were mixed with the extract as follows: 20 μL of extract were placed in a 96-well u-bottom culture plate as triplicates, then 180 μL cell suspension was added on top and mixed. Final concentration of the cells was 5*10^4 cells/well (=2.5*10^5 cells/mL).
(§4) Sample format: 96 well with 200 μL/well and 10,000 events measured per sample. FACS (fluorescence activated cell sorting) gating was performed via SSC (sideward scatter) versus FSC (forward scatter) density blot. A gate has been applied to identify viable cells. Percentage of viable cells was determined for all samples of a 96-well plate.
(§5) CellTrace™ CFSE median fluorescence (488 nm excitation and a 530/30 nm bandpass emission filter): From viable cell population single cells were determined and viable, single cells within the gate defined in a histogram to evaluate the level of fluorescence intensity of cells labelled with CellTrace™ CFSE. Cell proliferation was followed for 7 days. With increasing level of proliferation median fluorescence decreases, shown as shift of peak from right to left within the flow cytometer; non-labeled cells shown on the far-left side. Median fluorescence was determined as read-out. Earliest observable influence on proliferation and activation was expected after 3 days of incubation with the test compounds.
PBMCs isolated from blood were activated for 2 days on an activating surface with anti-CD3 (UCHT1) and anti-CD28. Activated PBMCs were then induced to proliferate by adding 1000 U/ml IL-2. Therefore, the cells were transferred to a new dish without activating antibodies and 2 days later the activated cells were used to set up the experiment. 40*10^6 cells were used for CFSE staining and cultured with extracts in RPMI 1640 with 10% FBS, 1% HEPS (10 mM), 0.1% β-mecaptoethanol (50 μM), 0.5% Pen/Strep and 100 U/ml IL-2.
(§6) Water, DMSO or DMF were used as negative control; UCHT1 (anti-CD3) antibody as positive control. The samples plate set-up was used as follows:
(§7) Half medium change with fresh extracts of final concentration was done every day.
In the next experiment the effect of the test compounds on the proliferation of activated PBMCs was evaluated. […]

[1] = test system: isolated PBMCs (non-activated); test: Activating effect on isolated non-activated PBMCs (CellTrace CFSE proliferation, flow cytometry); type: cell-based, human; conditions: for Median Fluorescence Day 7 Average / Median Fluorescence Day 2 Average: CellTrace CFSE; for Median Fluorescence Day 2 Average: no activation stimulus
Excerpt: as §1, §2, §3, §4, §5
All cells (40*10^6) of one vial of frozen PBMC's (non-activated) were used for CFSE staining and cultured with extracts as follows: Day 0-3 in RPMI 1640 with 10% FBS, 1% HEPS (10 mM); day 3-7 in RPMI 1640 with 10% FBS, 1% HEPS (10 mM) and 100 U/mL IL-2.
as §6, §7
To evaluate, if the chosen test compounds could have an activating effect on isolated PBMCs (Peripheral Blood Mononuclear Cells) and induce them to proliferate, PBMCs were incubated together with the test compounds in different concentrations. […]

[2] = test system: Jurkat cells (T cell leukemia); test: Cell viability (Cell Titer Glo, ATP luminescence); type: cell-based; conditions: increasing concentrations; FIG. 8A, FIG. 9
Procedure: Similar cell viability assays were performed with additional cell lines (HeLa, Jurkat, Mt4 and THP-1) and using the Cell Titer Glo Assay. In order to further evaluate the effect of Healthberry® 865 on T cell populations and specifically the CD4+ populations, additional cell viability analysis was performed. On the basis that Healthberry® 865 has an influence on the CD4+ cell populations and additionally on the activation status of T cells, specifically T cell leukemia/lymphoma cell lines as Jurkat (T cell leukemia) and Mt4 (HTLV-I positive; human T-cell lymphotropic virus type I retrovirus causes adult T-cell leukemia-lymphoma) cells were chosen as in vitro models. Furthermore, control cell lines were chosen, which are not CD4^+ such as HeLa cells (epithelial cervix carcinoma) or which represent another type of leukemia such as THP-1 (acute monocytic leukemia). […] Cell viability tests were performed with the T cell leukemia cell lines Jurkat (FIG. 8A) and Mt4 (FIG. 8B) as well as with control cell lines such as the CD4 negative cervix carcinoma cell line HeLa (FIG. 8C) and the monocytic leukemia cell line THP 1 (FIG. 8D). Cell viability was evaluated based on ATP amount and via luminescence measurement. Samples were tested in triplicates.

[3] = test system: CD8+ T cells in activated PBMCs; test: Analysis of T cell populations via flow cytometry, CD8+; type: cell-based, human; conditions: FIG. 6
Procedure: (§8) Sample preparation and plate set-up was used as described before in the T cell activation assay. Primary PBMCs were seeded on activating surface (anti-CD3, anti-CD28) with medium containing 1000 U/ml IL-2 for 2 days. The activated PBMCs were then cultured with the prepared sample concentrations in medium containing 100 U/ml IL-2 every day from day 3 on after isolation. Half medium change with fresh samples and flow cytometry measurement was performed every day. All cells for flow cytometry were labelled with an antibody mixture containing Annexin V_Alexa594, anti-CD4_APC and anti-CD8_PE for CD-marker as well as live-dead staining.
(§9) PBMS were activated by using an activating surface and the addition of Interleukin-2 to the cell culture media. The activated PBMCs, which contain T-cells as the most prominent cell type, were treated with the berry extracts or the anthocyanins from day 3 on after isolation. To evaluate the different T cell population flow cytometry analysis were performed with anti-CD4 and anti-CD8 antibodies in combination with Annexin V staining as live-dead-staining.

[4] = test system: CD4+ T cells in activated PBMCs; test: Analysis of T cell populations via flow cytometry, CD4+; type: cell-based, human; conditions: FIG. 7
Procedure: as §8, §9

SMILES	proliferation of activated PBMCs on day 3 (in words) (activated PBMCs)	Median Fluorescence Day 2 Average (activated PBMCs; 15 μg/mL)	Median Fluorescence Day 3 Average (activated PBMCs; 15 μg/mL)	Median Fluorescence Day 2 Average (activated PBMCs; 30 μg/mL)	Median Fluorescence Day 3 Average (activated PBMCs; 30 μg/mL)	Median Fluorescence Day 2 Average (activated PBMCs; 75 μg/mL)	Median Fluorescence Day 3 Average (activated PBMCs; 75 μg/mL)	Median Fluorescence Day 7 Average ([1]; 15 μg/mL, IL-2 from day 3)	Median Fluorescence Day 2 Average ([1]; 15 μg/mL)	Median Fluorescence Day 7 Average ([1]; 30 μg/mL, IL-2 from day 3)	Median Fluorescence Day 2 Average ([1]; 30 μg/mL)	Median Fluorescence Day 7 Average ([1]; 75 μg/mL, IL-2 from day 3)	Median Fluorescence Day 2 Average ([1]; 75 μg/mL)	further results
CC1=C(/C=C/C(C)=C/C=C/C(C)=C/C=C/C=C(C)/C=C/C=C(C)/C=C/C2=C(C)C(=O)[C@@H](O)CC2(C)C)C(C)(C)C[C@H](O)C1=O [Astaxanthin, reference compound]	slower proliferation													Median Fluorescence Day 2 Average (activated PBMCs; 2 μg/mL): 14190; Median Fluorescence Day 3 Average (activated PBMCs; 2 μg/mL): 6502; Median Fluorescence Day 2 Average (activated PBMCs; 4 μg/mL): 15365; Median Fluorescence Day 3 Average (activated PBMCs; 4 μg/mL): 10055; Median Fluorescence Day 2 Average (activated PBMCs; 10 μg/mL): 19750; Median Fluorescence Day 3 Average (activated PBMCs; 10 μg/mL): 15342; Median Fluorescence Day 7 Average ([1]; 2 μg/mL, IL-2 from day 3): 20201; Median Fluorescence Day 2 Average ([1]; 2 μg/mL): 33336; Median Fluorescence Day 7 Average ([1]; 4 μg/mL, IL-2 from day 3): 19444; Median Fluorescence Day 2 Average ([1]; 4 μg/mL): 32336; Median Fluorescence Day 7 Average ([1]; 10 μg/mL, IL-2 from day 3): 16442; Median Fluorescence Day 2 Average ([1]; 10 μg/mL): 36178
C[C@@H]1O[C@@H](OC[C@H]2O[C@@H](Oc3cc4c(O)cc(O)cc4[o+]c3-c3ccc(O)c(O)c3)[C@H](O)[C@@H](O)[C@@H]2O)[C@H](O)[C@H](O)[C@H]1O [C3R, cyanidin 3-rutinoside]	dose-dependent and significant decrease of proliferation	14630	6153	15317	7228	17032	11086	21030	33603	21539	33737	22855	34486	
OC[C@H]1O[C@@H](Oc2cc3c(O)cc(O)cc3[o+]c2-c2cc(O)c(O)c(O)c2)[C@H](O)[C@@H](O)[C@@H]1O [D3G, Delphinidin 3-glucoside]														cell viability (ATP amount, luminescence) [2]: specific reduction
C[C@@H]1O[C@@H](OC[C@H]2O[C@@H](Oc3cc4c(O)cc(O)cc4[o+]c3-c3cc(O)c(O)c(O)c3)[C@H](O)[C@@H](O)[C@@H]2O)[C@H](O)[C@H](O)[C@H]1O [D3R, delphinidin 3-rutinoside]	dose-dependent and significant decrease of proliferation	14407	6602	15685	8150	19716	13927	20821	34772	25171	34646	44248	37453	activation / proliferation of non-activated PBMCs (in words) ([1]; 2 days up to 7 days incubation, IL-2 from day 3): slight decrease of proliferation; change of CD8+ T cells in comparison to controls [3]: most significant effects; change of CD4+ T cells in comparison to controls [4]: most significant effects
